One data set deals with αvβ1 integrin (UniProt G3HZ55+P06756). The experiment in a line: Cell adhesion assay, CHOαv adhering to fibronectin. In kind it is cell-based.
For another data set, the target named is α5β1 integrin (Homo sapiens, UniProt P05556+P08648). Description: Cell adhesion assay, SW480 plated on fibronectin. In kind it is cell-based. The conditions noted are these: for improvement of potency against α5β1 integrin: cell adhesion, versus alkyl-linker compounds.
The next data set has as its target αvβ3 integrin (Homo sapiens, UniProt P05106+P06756). The experiment in a line: Cell adhesion assay, SW480 transfected with human β3 adhering to fibrinogen. In kind it is cell-based.
A further data set can be described thus: Solubility. In kind it is physicochemical.
For another data set, the system named is Caco-2 cell. Description: Caco-2 cell permeability assay. In kind it is in vitro ADME. (In general: Caco-2 cells form a polarised layer with tight junctions and transporters.)
The next data set addresses α4β1 integrin (Homo sapiens, UniProt P05556+P13612). Particulars: cited from earlier work.

Molecules are shown by their SMILES.

Chain of αvβ3 integrin (P06756 31-889 limits assumed): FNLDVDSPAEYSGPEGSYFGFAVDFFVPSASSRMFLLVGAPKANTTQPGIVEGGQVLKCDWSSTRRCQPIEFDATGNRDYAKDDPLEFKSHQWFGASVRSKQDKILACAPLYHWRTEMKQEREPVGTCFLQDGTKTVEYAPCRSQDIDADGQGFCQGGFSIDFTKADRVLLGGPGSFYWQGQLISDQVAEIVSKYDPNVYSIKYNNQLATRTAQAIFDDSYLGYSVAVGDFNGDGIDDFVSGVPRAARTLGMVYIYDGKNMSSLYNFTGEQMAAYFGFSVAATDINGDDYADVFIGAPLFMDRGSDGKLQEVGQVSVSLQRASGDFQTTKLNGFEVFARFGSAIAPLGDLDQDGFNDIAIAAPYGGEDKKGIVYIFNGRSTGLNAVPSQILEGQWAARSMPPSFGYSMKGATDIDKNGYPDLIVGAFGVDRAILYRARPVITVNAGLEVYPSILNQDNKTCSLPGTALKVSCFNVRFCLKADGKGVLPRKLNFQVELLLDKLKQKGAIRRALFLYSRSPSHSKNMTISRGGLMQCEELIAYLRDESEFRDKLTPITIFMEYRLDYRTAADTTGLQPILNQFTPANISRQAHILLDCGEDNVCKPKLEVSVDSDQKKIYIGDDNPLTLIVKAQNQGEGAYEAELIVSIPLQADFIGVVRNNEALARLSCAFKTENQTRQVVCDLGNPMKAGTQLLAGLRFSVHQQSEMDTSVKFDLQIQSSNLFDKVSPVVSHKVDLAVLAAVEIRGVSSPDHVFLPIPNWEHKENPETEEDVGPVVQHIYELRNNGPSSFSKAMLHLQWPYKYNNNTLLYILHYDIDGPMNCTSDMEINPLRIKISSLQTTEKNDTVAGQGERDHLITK
Chain of αvβ3 integrin (P06756 891-1048 partner limits assumed): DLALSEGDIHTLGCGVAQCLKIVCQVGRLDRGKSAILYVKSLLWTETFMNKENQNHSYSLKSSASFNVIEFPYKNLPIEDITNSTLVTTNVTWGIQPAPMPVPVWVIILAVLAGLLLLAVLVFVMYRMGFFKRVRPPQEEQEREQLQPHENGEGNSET
Chain of αvβ3 integrin (P05106 27-788): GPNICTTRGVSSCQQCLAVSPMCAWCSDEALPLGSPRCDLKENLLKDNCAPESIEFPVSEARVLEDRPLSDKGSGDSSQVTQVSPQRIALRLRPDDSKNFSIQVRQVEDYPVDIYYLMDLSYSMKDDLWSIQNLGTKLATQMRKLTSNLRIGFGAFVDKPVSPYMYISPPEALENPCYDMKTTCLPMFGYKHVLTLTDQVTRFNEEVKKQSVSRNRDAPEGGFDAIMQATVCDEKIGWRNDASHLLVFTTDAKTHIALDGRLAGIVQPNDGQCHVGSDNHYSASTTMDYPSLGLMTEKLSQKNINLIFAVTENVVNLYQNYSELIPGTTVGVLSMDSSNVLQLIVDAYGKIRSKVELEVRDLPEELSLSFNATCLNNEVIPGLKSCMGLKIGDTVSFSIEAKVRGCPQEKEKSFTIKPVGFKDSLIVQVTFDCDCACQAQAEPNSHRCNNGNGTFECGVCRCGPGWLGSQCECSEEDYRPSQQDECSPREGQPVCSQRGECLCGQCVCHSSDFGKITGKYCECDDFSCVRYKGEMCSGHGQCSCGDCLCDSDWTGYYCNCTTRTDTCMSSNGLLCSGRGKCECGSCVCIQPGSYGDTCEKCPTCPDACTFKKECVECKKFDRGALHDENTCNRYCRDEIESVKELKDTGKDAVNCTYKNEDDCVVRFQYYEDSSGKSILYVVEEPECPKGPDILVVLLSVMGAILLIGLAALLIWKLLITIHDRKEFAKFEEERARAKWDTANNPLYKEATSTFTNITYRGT
Chain of α5β1 integrin (P08648 42-894 limits assumed): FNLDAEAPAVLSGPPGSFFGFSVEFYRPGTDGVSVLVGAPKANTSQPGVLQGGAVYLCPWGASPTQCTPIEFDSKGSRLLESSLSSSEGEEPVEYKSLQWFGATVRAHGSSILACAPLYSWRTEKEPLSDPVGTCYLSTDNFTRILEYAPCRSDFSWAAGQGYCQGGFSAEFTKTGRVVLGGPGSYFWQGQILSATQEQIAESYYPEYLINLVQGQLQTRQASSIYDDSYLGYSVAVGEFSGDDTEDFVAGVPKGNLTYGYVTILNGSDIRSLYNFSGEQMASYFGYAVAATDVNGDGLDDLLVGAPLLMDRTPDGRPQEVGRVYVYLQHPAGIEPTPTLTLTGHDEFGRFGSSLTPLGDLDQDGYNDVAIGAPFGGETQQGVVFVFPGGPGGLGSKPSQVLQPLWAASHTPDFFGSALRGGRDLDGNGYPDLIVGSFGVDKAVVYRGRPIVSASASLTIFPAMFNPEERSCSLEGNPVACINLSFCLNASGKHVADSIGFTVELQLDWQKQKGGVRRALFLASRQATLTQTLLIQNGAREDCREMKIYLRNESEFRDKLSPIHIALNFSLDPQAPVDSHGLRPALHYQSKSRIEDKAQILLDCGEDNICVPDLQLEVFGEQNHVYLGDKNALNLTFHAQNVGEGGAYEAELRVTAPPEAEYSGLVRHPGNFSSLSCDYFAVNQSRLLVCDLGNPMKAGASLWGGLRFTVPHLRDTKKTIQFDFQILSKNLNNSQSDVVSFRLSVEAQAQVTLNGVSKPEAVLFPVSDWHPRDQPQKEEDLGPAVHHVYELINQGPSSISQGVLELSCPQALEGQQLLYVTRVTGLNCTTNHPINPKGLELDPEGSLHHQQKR
Chain of α5β1 integrin (P08648 895-1049 partner limits assumed): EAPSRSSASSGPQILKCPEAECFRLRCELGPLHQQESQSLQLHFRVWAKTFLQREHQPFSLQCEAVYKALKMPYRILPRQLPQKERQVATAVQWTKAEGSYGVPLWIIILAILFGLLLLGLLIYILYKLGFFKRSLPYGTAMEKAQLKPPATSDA
Chain of α5β1 integrin (P05556 21-798): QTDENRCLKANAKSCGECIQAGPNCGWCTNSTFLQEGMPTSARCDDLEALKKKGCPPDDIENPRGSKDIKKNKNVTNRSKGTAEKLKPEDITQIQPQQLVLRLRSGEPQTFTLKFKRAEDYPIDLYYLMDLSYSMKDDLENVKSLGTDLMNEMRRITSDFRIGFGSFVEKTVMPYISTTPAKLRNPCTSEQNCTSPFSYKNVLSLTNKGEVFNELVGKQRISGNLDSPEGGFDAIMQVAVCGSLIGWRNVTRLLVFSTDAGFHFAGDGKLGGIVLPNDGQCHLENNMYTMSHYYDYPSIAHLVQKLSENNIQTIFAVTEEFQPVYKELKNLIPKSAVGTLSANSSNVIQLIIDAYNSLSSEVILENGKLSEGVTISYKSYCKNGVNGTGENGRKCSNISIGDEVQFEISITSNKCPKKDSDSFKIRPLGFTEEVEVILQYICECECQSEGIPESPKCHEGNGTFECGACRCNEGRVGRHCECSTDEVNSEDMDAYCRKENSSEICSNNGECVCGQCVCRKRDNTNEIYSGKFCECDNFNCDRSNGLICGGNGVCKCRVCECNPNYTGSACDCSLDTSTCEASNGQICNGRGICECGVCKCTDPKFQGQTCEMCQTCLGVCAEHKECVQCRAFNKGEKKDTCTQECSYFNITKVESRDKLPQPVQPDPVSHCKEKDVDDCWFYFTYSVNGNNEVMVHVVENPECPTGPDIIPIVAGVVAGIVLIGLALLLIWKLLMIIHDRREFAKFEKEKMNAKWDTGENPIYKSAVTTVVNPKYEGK
Chain of αvβ1 integrin (P06756 31-889 limits assumed): as the sequence (P06756 31-889 limits assumed) above
Chain of αvβ1 integrin (P06756 891-1048 limits assumed): as the sequence (P06756 891-1048 partner limits assumed) above
Chain of αvβ1 integrin (G3HZ55 21-798): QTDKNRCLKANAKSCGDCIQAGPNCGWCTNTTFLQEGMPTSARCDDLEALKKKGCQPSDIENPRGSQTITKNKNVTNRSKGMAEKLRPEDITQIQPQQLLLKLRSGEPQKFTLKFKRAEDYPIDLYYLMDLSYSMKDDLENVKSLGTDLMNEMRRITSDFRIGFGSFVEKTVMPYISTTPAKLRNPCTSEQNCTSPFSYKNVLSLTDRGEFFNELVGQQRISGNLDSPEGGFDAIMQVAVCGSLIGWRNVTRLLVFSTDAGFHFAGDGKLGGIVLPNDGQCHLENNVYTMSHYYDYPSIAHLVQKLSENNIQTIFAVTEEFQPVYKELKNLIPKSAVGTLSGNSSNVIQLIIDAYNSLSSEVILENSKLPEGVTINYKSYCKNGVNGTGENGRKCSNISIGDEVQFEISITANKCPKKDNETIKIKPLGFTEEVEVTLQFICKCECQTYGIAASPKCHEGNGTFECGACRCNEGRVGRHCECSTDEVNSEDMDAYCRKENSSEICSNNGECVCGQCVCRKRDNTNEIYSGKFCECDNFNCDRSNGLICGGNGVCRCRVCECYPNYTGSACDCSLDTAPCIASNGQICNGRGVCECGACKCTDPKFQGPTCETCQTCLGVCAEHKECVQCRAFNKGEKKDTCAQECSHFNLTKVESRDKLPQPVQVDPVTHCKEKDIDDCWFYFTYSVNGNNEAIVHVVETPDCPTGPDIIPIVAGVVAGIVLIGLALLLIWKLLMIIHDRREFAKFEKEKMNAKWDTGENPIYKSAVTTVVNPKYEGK

With `N=C(N)Nc1cc(NC(=O)CCCNC(=O)C23CC4CC(CC(C4)C2)C3)cc(C(=O)NCC(=O)NC[C@H](NC(=O)[C@@H]2CCCN2S(=O)(=O)c2ccccc2)C(=O)O)c1` [Compound 15], the “potency against αvβ1 integrin in cell adhesion assay (in words)” value at αvβ1 integrin is recorded as “sub-nanomolar potency”. For the same molecule, on α5β1 integrin, the “potency against α5β1 integrin in cell adhesion assay (in words)” value was “excellent nanomolar potency”. For the same molecule, the “selectivity against αvβ3 integrin in cell adhesion assay (in words)” value (from here on “selectivity against αvβ3 integrin”) on αvβ3 integrin was “great selectivity”. In “Solubility”, the “solubility (in words)” value is “limited solubility”. Moreover, in the data set with Caco-2 cell, the “permeability in Caco-2 cell assay (in words)” value is on record as “poor permeability”.
For `N=C(N)NCCCCC(=O)Nc1ccc(C[C@H](NC(=O)[C@@H]2CCCN2S(=O)(=O)c2ccccc2)C(=O)O)cc1` [Compound 4], the “selectivity against α4β1 integrin (in words)” value on α4β1 integrin is given as “marginal selectivity”.
`N=C(N)Nc1cccc(C(=O)NNC(=O)NC[C@H](NC(=O)[C@@H]2CCCN2S(=O)(=O)c2ccccc2)C(=O)O)c1` [Compound 12]: the “improvement of potency against α5β1 integrin” value at α5β1 integrin was “more than 10 fold”. For the same molecule, the “selectivity against αvβ3 integrin” value on αvβ3 integrin was “not still satisfactory”.
As for `N=C(N)NCCCCCNC(=O)NC[C@H](NC(=O)[C@@H]1CCCN1S(=O)(=O)c1ccccc1)C(=O)O` [Compound 5], the “potency against αvβ1 integrin in cell adhesion assay (in words)” value at αvβ1 integrin was “sub-nanomolar potency”. On α5β1 integrin, the “potency against α5β1 integrin in cell adhesion assay (in words)” value is reported as “sub-micromolar IC50”. For the same molecule, the “selectivity against αvβ3 integrin” value on αvβ3 integrin is on record as “excellent selectivity”.
On to `N=C(N)Nc1cccc(C(=O)NCC(=O)NC[C@H](NC(=O)[C@@H]2CCCN2S(=O)(=O)c2ccccc2)C(=O)O)c1` [Compound 11], for which the “improvement of potency against α5β1 integrin” value on α5β1 integrin is “more than 10 fold”. The “selectivity against αvβ3 integrin” value on αvβ3 integrin is listed as “not still satisfactory”.

The record behind these values is publication PMC7700746 (Bioorganic & medicinal chemistry letters, 2020).
